Experimental data: US20100317767A1, “FULLERENE FILM AND FULLERENE POLYMER BOTH PRODUCED FROM FULLERENE DERIVATIVE AND PROCESSES FOR PRODUCING THESE” (FRONTIER CARBON CORPORATION, priority 2006, published 2010)
Read-outs that look alike come from different tables or passages of the source.

How the values were obtained:
[1] = Washing of coating films with toluene before and after heat treatment; assay type: physicochemical; conditions: coating film
Description: A 5% by mass PGMEA solution of each of Compounds 1, 2, and 5 and a 5% by mass cyclohexanone solution of each of Compounds 3 and 4 were prepared. Each solution was applied to a glass substrate (50×50 mm) with a spin coater and dried at 100° C. Thereafter, the coating films were examined with an optical microscope. As a result, these coating films were ascertained to be even. These coating films were washed with toluene. As a result, the films were removed. It was thus ascertained that the coating films from which the solvent had been removed were soluble in toluene.
The coating films of Compounds 1 to 5 each formed on a glass substrate in (8) were placed in an electric furnace heated at 300° C. and heat-treated for 10 minutes in an air atmosphere.
The fullerene films obtained by the heat treatment of the coating films of Compounds 1 to 3 were examined by X-ray diffractometry (XRD) with RINT 2500, manufactured by Rigaku Corp. […] Measuring conditions are as follows.
The films which had undergone the heat treatment(s) were washed with toluene. […] It can be seen that although the fullerene derivatives applied in film form had been soluble in toluene solvent, the derivatives became insoluble, through the heat treatment(s), in the solvent in which the fullerene is soluble.

[2] = TG examination in nitrogen atmosphere; assay type: physicochemical; conditions: for weight loss (TG-DTA): heating rate 10° C./min; for temperature of weight loss attributable to pyrolysis, compared with air: in nitrogen, result in words
Description: The examination was made with apparatus for both differential thermal analysis and thermogravimetry TG/DTA6200, manufactured by SII Nano Technology Inc., in a nitrogen atmosphere (flow rate, 200 mL/min) under the conditions of a heating rate of 10° C./min.

[3] = TG-DTA examination in air atmosphere; assay type: physicochemical; conditions: for weight loss (TG-DTA): 300° C. (in air), heating rate 10° C./min
Description: Compounds 1 to 6 synthesized in (1) to (6) above were examined by TG-DTA (thermogravimetric-differential thermal analysis) in order to investigate the behavior thereof in thermal decomposition. The examination was made with apparatus for both differential thermal analysis and thermogravimetry TG/DTA6200, manufactured by SII Nano Technology Inc., in an air atmosphere (flow rate, 200 mL/min) under the conditions of a heating rate of 10° C./min. In [60]fullerene, a large weight loss accompanied by heat generation began to be observed at around 500° C. This weight loss was due to oxidation/combustion. […] This large weight loss is thought to be attributable to the pyrolysis of the fullerene derivative.

[4] = Solubility of fullerene derivatives in toluene (HPLC determination); assay type: physicochemical
Description: The solubility of a fullerene derivative can be determined, for example, by diluting a solution of the fullerene derivative with a good solvent, e.g., toluene, and examining the dilution with an analyzer such as, e.g., a high-performance liquid chromatograph (HPLC). More specifically, the procedure is as follows. A dilution of the fullerene derivative solution is analyzed with an HPLC having an ultraviolet/visible detector to determine that peak intensity for the fullerene derivative which is obtained from the absorbance of an ultraviolet light having a specific wavelength (e.g., 290 nm). The concentration of the fullerene derivative in the dilution of the fullerene derivative solution is determined from a calibration curve obtained beforehand from fullerene derivative standard solutions having known concentrations (prepared using the solvent used for diluting the fullerene derivative solution). This concentration value is multiplied by the dilution ratio to thereby determine the fullerene derivative concentration in the original fullerene derivative solution.

[5] = cited from earlier work
[6] = after heat treatment (300° C./in air), 10 minutes

Compound: C60(tBu-isonipecotate)4(O) [Compound 5]
- Solubility in toluene [1, 6]: insoluble
- Solubility in toluene ([1]; before heat treatment): soluble
- weight loss (TG-DTA) ([2]; 300° C. (in nitrogen)): 44%
- temperature of weight loss attributable to pyrolysis, compared with air [2]: almost the same temperature as in air
- weight loss (TG-DTA) [3]: 37%
- temperature of weight loss attributable to pyrolysis of the fullerene derivative ([3]; in air): around 200 °C
- Solubility in toluene [4]: ≥ 10%

Compound: c12c3c4c5c1c1c6c7c2c2c8c3c3c9c4c4c%10c5c5c1c1c6c6c%11c7c2c2c7c8c3c3c8c9c4c4c9c%10c5c5c1c1c6c6c%11c2c2c7c3c3c8c4c4c9c5c1c1c6c2c3c41 [[60]fullerene]
- solubility of [60]fullerene in the solvent ([5]; 1,2,3-trimethylbenzene): 4700 µg/mL
- solubility of [60]fullerene in the solvent ([5]; 1,2,4-trichlorobenzene): 10400 µg/mL
- solubility of [60]fullerene in the solvent ([5]; 1,2,4-trimethylbenzene): 17900 µg/mL
- solubility of [60]fullerene in the solvent ([5]; 1,3,5-trimethylbenzene): 1500 µg/mL
- solubility of [60]fullerene in the solvent ([5]; 1-methylnaphthalene): 33200 µg/mL
- solubility of [60]fullerene in the solvent ([5]; 1-phenylnaphthalene): 50000 µg/mL
- solubility of [60]fullerene in the solvent ([5]; N-methyl-2-pyrrolidone): 890 µg/mL
- solubility of [60]fullerene in the solvent ([5]; bromobenzene): 2800 µg/mL
- solubility of [60]fullerene in the solvent ([5]; chlorobenzene): 5700 µg/mL
- solubility of [60]fullerene in the solvent ([5]; chloroform): 500 µg/mL
- solubility of [60]fullerene in the solvent ([5]; cyclohexane): 50 µg/mL
- solubility of [60]fullerene in the solvent ([5]; decalin): 4600 µg/mL
- solubility of [60]fullerene in the solvent ([5]; dichloromethane): 250 µg/mL
- solubility of [60]fullerene in the solvent ([5]; ethylbenzene): 2600 µg/mL
- solubility of [60]fullerene in the solvent ([5]; m-dichlorobenzene): 2400 µg/mL
- solubility of [60]fullerene in the solvent ([5]; m-xylene): 1400 µg/mL
- solubility of [60]fullerene in the solvent ([5]; n-decane): 70 µg/mL
- solubility of [60]fullerene in the solvent ([5]; n-dodecane): 90 µg/mL
- solubility of [60]fullerene in the solvent ([5]; n-hexane): 40 µg/mL
- solubility of [60]fullerene in the solvent ([5]; n-tetradecane): 126 µg/mL
- solubility of [60]fullerene in the solvent ([5]; o-dichlorobenzene): 24600 µg/mL
- solubility of [60]fullerene in the solvent ([5]; o-xylene): 8700 µg/mL
- solubility of [60]fullerene in the solvent ([5]; p-xylene): 5900 µg/mL
- solubility of [60]fullerene in the solvent ([5]; quinoline): 7200 µg/mL
- solubility of [60]fullerene in the solvent ([5]; tetrahydrofuran): 37 µg/mL
- solubility of [60]fullerene in the solvent ([5]; toluene): 2900 µg/mL
- solubility of [60]fullerene in the solvent ([5]; xylene): 5200 µg/mL
- temperature of oxidation/combustion (large weight loss with heat generation / large exothermic peak) ([3]; in air): around 500 °C

Compound: C60 (t-Butoxycarbonylmethylpiperazine)4(O) [Compound 6]
- weight loss (TG-DTA) ([2]; 300° C. (in nitrogen)): 50%
- temperature of weight loss attributable to pyrolysis, compared with air [2]: almost the same temperature as in air
- weight loss (TG-DTA) [3]: 38%
- temperature of weight loss attributable to pyrolysis of the fullerene derivative ([3]; in air): around 200 °C
- Solubility in toluene [4]: ≥ 10%

Compound: N-(4-hydroxyphenyl)-2-n-dodecylpyrrolidine-C60 [Compound 3]
- Solubility in toluene [1, 6]: soluble
- Solubility in toluene ([1]; after heat treatment (500° C./in air), 10 minutes): insoluble
- Solubility in toluene ([1]; before heat treatment): soluble
- weight loss (TG-DTA) ([2]; 600° C. (in nitrogen)): 12%
- weight loss attributable to fullerene derivative pyrolysis ([3]; TG in air, result in words): No weight loss attributable to fullerene derivative pyrolysis was observed
- Solubility in toluene [4]: 6%
